Reference: ChEMBL document CHEMBL3769347, “Discovery of high affinity inhibitors of Leishmania donovani N-myristoyltransferase” (Medchemcomm, 2015)

Columns and labels:
[1] = target: T1, Glycylpeptide N-tetradecanoyltransferase (Plasmodium falciparum (isolate 3D7), UniProt Q8ILW6); assay: Binding affinity to Plasmodium falciparum N-myristoyltransferase by fluorescence analysis
T1 sequence (Q8ILW6 whole entry): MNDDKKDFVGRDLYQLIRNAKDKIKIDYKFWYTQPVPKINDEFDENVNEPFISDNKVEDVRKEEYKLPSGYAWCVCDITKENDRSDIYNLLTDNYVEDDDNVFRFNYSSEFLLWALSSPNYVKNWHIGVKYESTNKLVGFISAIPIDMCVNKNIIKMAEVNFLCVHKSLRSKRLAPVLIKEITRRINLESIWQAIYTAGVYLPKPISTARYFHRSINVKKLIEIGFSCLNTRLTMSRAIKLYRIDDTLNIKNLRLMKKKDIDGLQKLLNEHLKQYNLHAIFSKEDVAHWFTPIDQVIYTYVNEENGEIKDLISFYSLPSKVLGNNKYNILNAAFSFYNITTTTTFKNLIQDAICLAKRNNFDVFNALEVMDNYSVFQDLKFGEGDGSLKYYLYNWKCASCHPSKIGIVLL

[2] = Cytotoxicity in BALB/c mouse BMDM cells after 72 hrs by Alamar Blue assay; assay type: cell-based; details: bone marrow-derived macrophages (BMDM cells), read-out: LD50

Ki [1]	Structure (SMILES)	CC50 at 72 h [2]
> 100 µM	COc1cccc(COC(=O)c2sccc2OC2CCNCC2)c1	–
–	COc1cccc(Cc2noc(-c3cc(Cl)ccc3OC3CCNCC3)n2)c1	18 µM
–	Cc1nn(C)c(C)c1Cc1nnc(-c2cc(Cl)ccc2OC2CCNCC2)o1	> 90 µM
–	COc1cccc(Cc2noc(-c3cc(OC)ccc3OC3CCNCC3)n2)c1	27.9 µM
–	COc1cccc(Cc2noc(-c3ccc(F)cc3OC3CCNCC3)n2)c1	29.5 µM
